Source: ChEMBL document CHEMBL5236566, “Design and synthesis of novel pipernonaline derivatives as anti-austerity agents against human pancreatic cancer PANC-1 cells” (Bioorg Med Chem, 2022)
Calls of active or inactive are those of the source. No cut-off for these calls is given here.

Experiments:
PANC-1 [1] = experiment: Cytotoxicity against human PANC-1 cells assessed as reduction in cell viability incubated for 24 hrs in nutrient-rich Dulbecco's modified Eagle's medium by WST-8 assay; format: functional, cell-based; details: PANC-1, 24 h
PANC-1 [2] = experiment: Preferential cytotoxicity against human PANC-1 cells assessed as reduction in cell viability incubated for 24 hrs in nutrient-deprived medium by WST-8 assay; format: functional
[3] = Selectivity index, ratio of IC50 for cytotoxicity against human PANC-1 cells in nutrient-rich Dulbecco's modified Eagle's medium to PC50 for preferential cytotoxicity against human PANC-1 cells in nutrient-deprived medium; format: toxicity, cell-based
[4] = target: RAC-alpha serine/threonine-protein kinase (Homo sapiens) (UniProt P31749); experiment: Inhibition of Akt activation in human PANC-1 cells assessed as effect on Atg7 level at 1.25 to 5 uM incubated for 6 hrs in nutrient-deprived medium by Western blot analysis; format: cell-based; details: dose 1.25-5 µM
PANC-1 [5] = experiment: Inhibition of cell migration in human PANC-1 cells assessed as reduction in cell migration at 20 uM measured at 12 hrs in nutrient-rich Dulbecco's modified Eagle's medium by quantitative real-time cell migration assay relative to control; format: functional
[6] = target: RAC-alpha serine/threonine-protein kinase (Homo sapiens) (UniProt P31749); experiment: Inhibition of Akt activation in human PANC-1 cells assessed as effect on total Akt level at 1.25 to 5 uM incubated for 6 hrs in nutrient-deprived medium by Western blot analysis; format: cell-based; details: dose 1.25-5 µM
PANC-1 [7] = experiment: Inhibition of cell migration in human PANC-1 cells assessed as reduction in migration velocity at 20 uM measured every 15 min for 24 hrs in nutrient-rich Dulbecco's modified Eagle's medium by quantitative real-time cell migration assay; format: functional
PANC-1 [8] = experiment: Potency index, ratio of pipernonaline PC50 to test compound PC50 for Preferential cytotoxicity against human PANC-1 cells assessed as reduction in cell viability incubated for 24 hrs in nutrient-deprived medium by WST-8 assay; format: functional
[9] = target: RAC-alpha serine/threonine-protein kinase (Homo sapiens) (UniProt P31749); experiment: Inhibition of Akt activation in human PANC-1 cells assessed as decrease in Akt phosphorylation at 5 uM incubated for 6 hrs in nutrient-deprived medium by Western blot analysis; format: cell-based
[10] = target: RAC-alpha serine/threonine-protein kinase (Homo sapiens) (UniProt P31749); experiment: Inhibition of Akt activation in human PANC-1 cells assessed as effect on mTOR level at 1.25 to 5 uM incubated for 6 hrs in nutrient-deprived medium by Western blot analysis; format: cell-based; details: dose 1.25-5 µM
PANC-1 [11] = experiment: Inhibition of cell migration in human PANC-1 cells assessed as reduction in cell migration at 20 uM measured at 18 hrs in nutrient-rich Dulbecco's modified Eagle's medium by quantitative real-time cell migration assay relative to control; format: functional
[12] = target: RAC-alpha serine/threonine-protein kinase (Homo sapiens) (UniProt P31749); experiment: Inhibition of Akt activation in human PANC-1 cells assessed as upregulation of LC3-II level at 1.25 to 5 uM incubated for 6 hrs in nutrient-deprived medium by Western blot analysis; format: cell-based; details: dose 1.25-5 µM
[13] = target: RAC-alpha serine/threonine-protein kinase (Homo sapiens) (UniProt P31749); experiment: Inhibition of Akt activation in human PANC-1 cells assessed as effect on Atg3 level at 1.25 to 5 uM incubated for 6 hrs in nutrient-deprived medium by Western blot analysis; format: cell-based; details: dose 1.25-5 µM

RAC-alpha serine/threonine-protein kinase (Homo sapiens), sequence (P31749 whole entry): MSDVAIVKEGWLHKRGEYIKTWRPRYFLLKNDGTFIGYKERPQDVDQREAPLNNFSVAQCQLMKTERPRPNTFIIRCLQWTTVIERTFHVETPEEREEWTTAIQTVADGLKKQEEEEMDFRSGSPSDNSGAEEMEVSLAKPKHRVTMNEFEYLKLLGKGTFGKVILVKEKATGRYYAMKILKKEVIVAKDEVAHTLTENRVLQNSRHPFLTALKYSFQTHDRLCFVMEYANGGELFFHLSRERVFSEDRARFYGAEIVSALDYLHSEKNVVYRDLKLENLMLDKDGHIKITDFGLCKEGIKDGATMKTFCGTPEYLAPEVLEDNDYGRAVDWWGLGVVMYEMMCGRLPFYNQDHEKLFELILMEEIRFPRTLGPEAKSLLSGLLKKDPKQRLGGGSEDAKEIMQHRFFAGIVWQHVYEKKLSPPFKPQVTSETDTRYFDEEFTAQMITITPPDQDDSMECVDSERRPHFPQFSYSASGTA

SMILES	IC50 (PANC-1 [1])	PC50 (PANC-1 [2])	selectivity ratio [3]	also measured
O=C(CCCCCCCCc1ccc(C(F)(F)F)cc1)N1CCCCC1	54 µM	3.2 µM	16.9	
O=C(/C=C/CCCCC#Cc1ccccc1)N1CCCCC1	> 100 µM	2.2 µM	> 45.5	
O=C(CCCCCCCCc1ccc(O)cc1)N1CCCCC1	> 100 µM	7.8 µM	> 12.8	
O=C(CCCCCCCCc1ccccc1Cl)N1CCCCC1	> 100 µM	3.6 µM	> 27.8	
O=C(CCCCCCCc1ccccc1)N1CCCCC1	> 100 µM	6.9 µM	> 14.5	
O=C(CCCCCCCCc1ccccc1F)N1CCCCC1	98.9 µM	4.6 µM	21.5	
O=C(/C=C/CCCCCCc1ccccc1)N1CCCCC1	> 100 µM	1.7 µM	> 58.8	
O=C(/C=C/CCCCCCc1ccccc1)Nc1ccccc1	> 100 µM	8.8 µM	> 11.4	
N#Cc1ccc(CCCCCCCCC(=O)N2CCCCC2)cc1	> 100 µM	4 µM	> 25	
O=C(/C=C/CCCCCCc1ccccc1)NCc1ccccc1	> 100 µM	6.1 µM	> 16.4	
O=C(/C=C/CCCCCCc1ccccc1)N1CCC(O)CC1	> 100 µM	9.4 µM	> 10.6	
O=C(CCCCCCCCc1ccc(Cl)cc1)N1CCCCC1	65.5 µM	3.3 µM	19.8	
O=C(CCCCCCCCc1ccc2ccccc2c1)N1CCCCC1	87 µM	6 µM	14.5	
O=C(CCCCCCCCc1cccc(Cl)c1)N1CCCCC1	> 100 µM	4.3 µM	> 23.3	
O=C(/C=C/CCCCCCc1ccccc1)N1CCCC1	> 100 µM	4.1 µM	> 24.4	
O=C(CCCCCCCCc1ccc(F)cc1)N1CCCCC1	99.8 µM	3.5 µM	28.5	
O=C(/C=C/CCCCCCc1ccccc1)N1CCOCC1	> 100 µM	12.5 µM	> 8	

SMILES	IC50 (PANC-1 [1])	PC50 (PANC-1 [2])	selectivity ratio [3]	also measured
O=C(/C=C/CCCC/C=C/c1ccc2c(c1)OCO2)N1CCCCC1 [PIPERNONALINE]	54.9 µM	7.2 µM	7.6	
O=C(CCCCCCCCCCc1ccccc1)N1CCCCC1	> 100 µM	6.6 µM	> 15.2	
O=C(/C=C/CCCCCCc1ccccc1)N1CCCCCC1	> 100 µM	3.1 µM	> 32.3	
O=C(CCCCCCc1ccccc1)N1CCCCC1	> 100 µM	7.1 µM	> 14.1	
Cc1ccc(CCCCCCCCC(=O)N2CCCCC2)cc1	> 100 µM	4.1 µM	> 24.4	
O=C(CCCOCCCCc1ccccc1)N1CCCCC1	> 100 µM	26.6 µM	> 3.8	
O=C(/C=C/CCCCCCc1ccccc1)N[C@H]1CC[C@H](O)CC1	> 100 µM	52.1 µM	> 1.9	
COc1ccc(CCCCCCCCC(=O)N2CCCCC2)cc1	89.3 µM	3.8 µM	23.5	
O=C(CCCCCC/C=C/c1ccccc1)N1CCCCC1	> 100 µM	9.6 µM	7.4	
O=C(CCCCCCCCCc1ccccc1)N1CCCCC1	> 100 µM	6.5 µM	> 15.4	
O=C(/C=C\CCCCCCc1ccccc1)N1CCCCC1	> 100 µM	2.3 µM	> 43.5	
O=C(CCCCCCCCc1cccc(F)c1)N1CCCCC1	> 100 µM	6.6 µM	> 15.2	
Nc1ccn([C@@H]2O[C@H](CO)[C@@H](O)C2(F)F)c(=O)n1 [GEMCITABINE]	> 100 µM	>100 µM		
S=C(CCCCCCCCc1ccccc1)N1CCCCC1	> 100 µM	2.2 µM	> 45.5	
O=C(CCCCCCCCc1ccccc1)N1CCCCC1	> 100 µM	1.08 µM	> 90.9	inhibition [4]: inactive; inhibition at 20 µM (PANC-1 [5]): 50%; inhibition [6]: inactive; Activity (PANC-1 [7]): 10.6 um2/s; Ratio (PANC-1 [8]): 7; inhibition [9]: Active; inhibition [10]: inactive; inhibition at 20 µM (PANC-1 [11]): 78%; inhibition [12]: Active; inhibition [13]: inactive
O=C(CCCCCCCCC1CCCCC1)N1CCCCC1	> 100 µM	12 µM	> 8.3	
